pIC50: −log10 of the molar value.
What was measured:
[1] = molecular target: Poly [ADP-ribose] polymerase 1 (Homo sapiens, UniProt P09874); test: Inhibition of PARP1 (unknown origin)
[2] = molecular target: T1, Protein mono-ADP-ribosyltransferase PARP3 (Homo sapiens, UniProt Q9Y6F1); test: Inhibition of PARP3 (unknown origin)
T1 sequence (Q9Y6F1 whole entry): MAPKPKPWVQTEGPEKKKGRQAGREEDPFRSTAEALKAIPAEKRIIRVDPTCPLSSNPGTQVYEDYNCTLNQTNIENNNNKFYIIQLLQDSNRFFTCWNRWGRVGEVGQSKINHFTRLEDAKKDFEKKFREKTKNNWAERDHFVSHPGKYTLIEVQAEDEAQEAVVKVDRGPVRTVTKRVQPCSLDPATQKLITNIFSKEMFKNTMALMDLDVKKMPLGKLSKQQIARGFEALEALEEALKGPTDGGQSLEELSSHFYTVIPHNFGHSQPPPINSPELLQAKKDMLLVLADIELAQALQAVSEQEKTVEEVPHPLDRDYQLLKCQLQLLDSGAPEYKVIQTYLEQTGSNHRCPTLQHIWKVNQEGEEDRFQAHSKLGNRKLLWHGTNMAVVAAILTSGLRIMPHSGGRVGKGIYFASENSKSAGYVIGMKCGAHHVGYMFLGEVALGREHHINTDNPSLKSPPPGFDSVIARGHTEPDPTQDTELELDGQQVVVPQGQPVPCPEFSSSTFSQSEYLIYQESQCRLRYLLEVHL

Sequence of Poly [ADP-ribose] polymerase 1 (P09874 whole entry): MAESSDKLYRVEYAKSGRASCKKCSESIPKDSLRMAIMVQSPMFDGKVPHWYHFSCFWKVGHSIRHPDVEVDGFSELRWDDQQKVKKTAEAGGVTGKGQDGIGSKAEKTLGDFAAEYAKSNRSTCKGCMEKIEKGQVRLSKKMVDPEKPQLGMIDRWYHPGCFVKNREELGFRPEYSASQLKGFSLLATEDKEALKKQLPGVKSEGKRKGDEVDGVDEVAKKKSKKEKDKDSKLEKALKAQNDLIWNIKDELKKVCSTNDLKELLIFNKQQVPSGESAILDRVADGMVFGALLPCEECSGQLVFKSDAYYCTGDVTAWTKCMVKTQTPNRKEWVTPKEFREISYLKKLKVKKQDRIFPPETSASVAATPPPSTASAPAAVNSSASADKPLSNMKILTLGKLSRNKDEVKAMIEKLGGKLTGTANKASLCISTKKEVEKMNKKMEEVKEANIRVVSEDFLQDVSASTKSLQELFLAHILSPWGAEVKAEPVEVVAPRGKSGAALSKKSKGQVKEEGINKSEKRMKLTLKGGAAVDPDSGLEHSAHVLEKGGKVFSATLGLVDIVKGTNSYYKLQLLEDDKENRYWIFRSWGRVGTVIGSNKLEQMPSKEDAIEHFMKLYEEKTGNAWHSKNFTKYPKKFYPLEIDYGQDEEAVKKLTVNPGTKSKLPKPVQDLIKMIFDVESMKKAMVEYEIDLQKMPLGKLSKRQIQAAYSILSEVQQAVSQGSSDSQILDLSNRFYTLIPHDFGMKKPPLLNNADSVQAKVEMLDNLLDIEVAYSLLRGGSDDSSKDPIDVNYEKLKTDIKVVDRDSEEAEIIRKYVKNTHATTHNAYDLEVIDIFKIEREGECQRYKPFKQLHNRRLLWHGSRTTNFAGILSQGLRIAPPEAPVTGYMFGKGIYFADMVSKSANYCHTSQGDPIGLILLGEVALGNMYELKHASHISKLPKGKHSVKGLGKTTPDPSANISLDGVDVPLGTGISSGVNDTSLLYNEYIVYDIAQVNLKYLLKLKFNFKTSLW

Row | pIC50 [1] | Structure (SMILES) | pIC50 [2]
1 | 5.19 | Cc1cccc2c(=O)[nH]c(CCC(=O)Nc3ccc(C(=O)Nc4cccc5cccnc45)cc3)nc12 | 4.35
2 | – | O=C(CCc1nc2ccccc2c(=O)[nH]1)Nc1ccc(C(=O)Nc2cccc3cccnc23)cc1 | 4.40

From ChEMBL document CHEMBL4002591 (J Med Chem, 2017)
